Test results published in US11787796B2, “Plasma Kallikrein inhibitors and uses thereof” (Takeda Pharmaceutical Company Limited, priority 2019, dated 2023).

The compounds below were run against human activated kallikrein enzyme (Homo sapiens (Human), UniProt P03952) (assay: Plasma kallikrein inhibition assay with fluorogenic peptide substrate, 500 pM activated kallikrein format). Settings: 500 pM activated kallikrein; 300 uM Pro-Phe-Arg-7-amido-4-methylcoumarin substrate; 30 min preincubation, 10 min reaction at RT; read-out: Primary Dose Response Assay: Average EC50.
human activated kallikrein enzyme, sequence (P03952 391-638): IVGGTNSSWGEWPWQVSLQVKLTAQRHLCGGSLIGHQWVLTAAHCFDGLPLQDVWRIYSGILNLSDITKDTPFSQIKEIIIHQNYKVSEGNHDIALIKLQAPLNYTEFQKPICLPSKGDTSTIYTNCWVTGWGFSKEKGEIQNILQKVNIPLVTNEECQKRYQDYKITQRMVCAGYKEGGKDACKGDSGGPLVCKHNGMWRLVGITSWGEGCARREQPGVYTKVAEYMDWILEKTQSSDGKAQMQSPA
human activated kallikrein enzyme, sequence (P03952 20-390 partner): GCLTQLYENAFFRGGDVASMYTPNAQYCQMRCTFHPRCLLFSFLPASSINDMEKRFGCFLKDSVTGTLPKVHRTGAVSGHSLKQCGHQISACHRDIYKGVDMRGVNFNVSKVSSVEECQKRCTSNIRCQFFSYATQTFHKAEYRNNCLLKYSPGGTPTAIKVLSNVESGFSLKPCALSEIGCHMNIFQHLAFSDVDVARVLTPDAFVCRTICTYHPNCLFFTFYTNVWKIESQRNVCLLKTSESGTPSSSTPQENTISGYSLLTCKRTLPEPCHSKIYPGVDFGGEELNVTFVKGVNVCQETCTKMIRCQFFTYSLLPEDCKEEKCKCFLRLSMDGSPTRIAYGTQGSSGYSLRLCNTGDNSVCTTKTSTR
Type: biochemical
How it was run: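 Human activated kallikrein (500 pM format) was preincubated 30 min at RT with inhibitor in 20 mM Tris pH 7.5, 150 mM NaCl, 1 mM EDTA, 0.1% PEG-400, 0.1% Triton X-100. Reactions then ran 10 min at RT with 300 uM Pro-Phe-Arg-AMC. Fluorescence was read at ex 380/em 460 nm.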

Row | Compound | EC50 [nM]
1 | O=C(NCc1nccc(Cl)n1)c1cn(Cc2cn3cc(C4CC4)ccc3n2)nn1 [Example I-145, N-((4-chloropyrimidin-2-yl)methyl)-1-((6-cyclopropylimidazo[1,2-a]pyridin-2-yl)methyl)-1H-1,2,3-triazole-4-carboxamide] | 100 to 2000
2 | O=C(NCc1cc2c(Cl)c[nH]c2cn1)c1cn(Cc2cn3cc(C4CC4)ccc3n2)nn1 [Example I-146, N-((3-chloro-1H-pyrrolo[2,3-c]pyridin-5-yl)methyl)-1-((6-cyclopropylimidazo[1,2-a]pyridin-2-yl)methyl)-1H-1,2,3-triazole-4-carboxamide] | 1 to 10
3 | NCc1cc2c(cn1)N(C(=O)c1cn(Cc3cn4cc(C5CC5)ccc4n3)nn1)CC2 [Example I-147, (5-(aminomethyl)-2,3-dihydro-1H-pyrrolo[2,3-c]pyridin-1-yl)(1-((6-cyclopropylimidazo[1,2-a]pyridin-2-yl)methyl)-1H-1,2,3-triazol-4-yl)methanone] | 100 to 2000
4 | O=C(NCc1cc2c(cn1)NCCO2)c1cn(Cc2cn3cc(C4CC4)ccc3n2)nn1 [Example I-149, 1-((6-cyclopropylimidazo[1,2-a]pyridin-2-yl)methyl)-N-((3,4-dihydro-2H-pyrido[4,3-b][1,4]oxazin-7-yl)methyl)-1H-1,2,3-triazole-4-carboxamide] | 10 to 100
5 | O=C(NCc1nccc(OC(F)F)c1F)c1cn(Cc2cn3cc(C4CC4)cc(N4CCN(CC(F)(F)F)CC4)c3n2)nn1 [Example I-152, 1-((6-cyclopropyl-8-(4-(2,2,2-trifluoroethyl)piperazin-1-yl)imidazo[1,2-a]pyridin-2-yl)methyl)-N-((4-(difluoromethoxy)-3-fluoropyridin-2-yl)methyl)-1H-1,2,3-triazole-4-carboxamide] | 100 to 2000
6 | CN1CCN(c2cc(C3CC3)cn3cc(Cn4cc(C(=O)NCc5nccc(OC(F)F)c5F)nn4)nc23)CC1 [Example I-153] | 1 to 10

Next, values leading:

Row | EC50 [nM] | Compound
7 | 100 to 2000 | O=C(NCc1cc2c(cn1)NCC2)c1cn(Cc2cn3cc(C4CC4)ccc3n2)nn1 [Example I-148, 1-((6-cyclopropylimidazo[1,2-a]pyridin-2-yl)methyl)-N-((2,3-dihydro-1H-pyrrolo[2,3-c]pyridin-5-yl)methyl)-1H-1,2,3-triazole-4-carboxamide]
8 | 100 to 2000 | O=C(NCc1cc2c(cn1)CCCO2)c1cn(Cc2cn3cc(C4CC4)ccc3n2)nn1 [Example I-150, 1-((6-cyclopropylimidazo[1,2-a]pyridin-2-yl)methyl)-N-((3,4-dihydro-2H-pyrano[3,2-c]pyridin-7-yl)methyl)-1H-1,2,3-triazole-4-carboxamide]
9 | 100 to 2000 | O=C(NC1Cc2ccc(Cl)cc21)c1cn(Cc2cn3cc(C4CC4)ccc3n2)nn1 (centres unmarked) [Example I-151, N-(4-chlorobicyclo[4.2.0]octa-1(6),2,4-trien-7-yl)-1-((6-cyclopropylimidazo[1,2-a]pyridin-2-yl)methyl)-1H-1,2,3-triazole-4-carboxamide]
10 | 1 to 10 | Cc1[nH]nc2c1CC[C@H]2NC(=O)c1cn(Cc2cn3cc(C4CC4)ccc3n2)nn1 [Example I-154]
11 | 1 to 10 | Cc1[nH]nc2c1CC[C@H]2NC(=O)c1cnn(Cc2cn3cc(C4CC4)ccc3n2)c1 [Example I-155]
